Results taken from patent publication US10071090B2 (priority 2014, dated 2018).

What was measured:
[1] = in vivo, po; cited from earlier work
[2] = Solubility of oxymorphone in adhesive systems; assay type: physicochemical; conditions: in general
Description: A variety of adhesive systems, enhancers and cosolvents were employed to observe permeation differences within these systems. In general, solubility in acrylic adhesives (i.e. Duro-Tak®) was higher, and thus the driving force out of the patch would be relatively lower. Solubility in silicone adhesives was lower and thus provided a much higher driving constant out of the formulation and into the skin; however, due to the relatively lower solubility, a solubility enhancer that also assisted in solubilising the skin was utilized.

Row | SMILES | Bioavailability [1] [%] | Solubility in silicone adhesives ([2]; compared with acrylic adhesives) | solubility in acrylic adhesives (i.e. Duro-Tak®) ([2]; compared with silicone adhesives)
1 | COc1ccc2c3c1O[C@H]1C(=O)CC[C@H]4[C@@H](C2)N(C)CC[C@]314 [Hydrocodone] | 80 | – | –
2 | CN1CC[C@]23c4c5ccc(O)c4O[C@H]2C(=O)CC[C@@]3(O)[C@H]1C5 [Oxymorphone] | 10 | lower | higher
3 | COc1ccc2c3c1O[C@H]1C(=O)CC[C@@]4(O)[C@@H](C2)N(C)CC[C@]314 [Oxycodone] | 87 | – | –
